Converted amounts (≈) assume the structure as drawn. Like-named read-outs stand apart in the source and are kept apart here.
Experiments:
[1] = tested on: TEM-52, an antibiotic-resitant E. coli; conditions: TEM-52 versus wild-type; Fletcher (2001); cited from earlier work
[2] = tested on: E. cloacae; assay: Susceptibility testing (MIC, modified NCCLS method); assay type: cell-based, Enterobacter cloacae; conditions: Enterobacter cloacae, ATCC23355; E. cloacae ATCC 23355; read-out: MIC
Outline: (§1)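 Readout OD600 increase. Compounds (aqueous or DMSO stocks) serially diluted 2-fold across 20 concentrations, then inoculated with bacterial broth culture to final ~1-1.5×10^6 cells/ml; screening-adapted NCCLS microdilution.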

[3] = tested on: E. aerogenes; assay: as above; assay type: cell-based, Enterobacter aerogenes; conditions: Klebsiella aerogenes, ATCC35028; E. aerogenes ATCC 35028; read-out: MIC
Outline: as §1

[4] = tested on: Staphylococcus aureus; assay: as above; assay type: cell-based; conditions: Staphylococcus aureus, read-out: MIC
Outline: as §1

[5] = tested on: E. coli N; assay: as above; assay type: cell-based, Escherichia coli; conditions: Escherichia coli; E. coli (N); read-out: MIC
Outline: as §1

[6] = tested on: E. coli/TEM-1; assay: as above; assay type: cell-based, Escherichia coli; conditions: Escherichia coli
Outline: as §1

[7] = tested on: P. aeruginosa; assay: as above; assay type: cell-based, Pseudomonas aeruginosa; conditions: Pseudomonas aeruginosa, read-out: MIC
Method: The NCCLS (National Committee for Clinical Laboratory Standards) method to determine MIC's of antimicrobial compounds was modified for high-throughput screening. All stocks of tested compounds were prepared in either water or in dimethylsulfoxide (DMSO), depending on the solubility. […] Briefly 20 2-fold serial dilutions of testing compounds from the highest concentration were made in a 384-well microtiter plate. Each well was inoculated with testing bacteria in broth to a final concentration of approximately 1-1.5×10^6 cells/ml. Bacterial growth was determined by the increase of optical density at 600 nm using a microplate reader (Tecan SpectraFluor Plus).

[8] = tested on: K. pneumoniae; assay: as above; assay type: cell-based, Klebsiella pneumoniae; conditions: Klebsiella pneumoniae, read-out: MIC
Outline: as §1

[9] = tested on: E. faecalis; assay: as above; assay type: cell-based, Enterococcus faecalis; conditions: Enterococcus faecalis, read-out: MIC
Outline: as §1

For `CO/N=C(\C(=O)N[C@@H]1C(=O)N2C(C(=O)O)=C(COC(C)=O)CS[C@H]12)c1csc(N)n1` [cefotaxime], the “fold more resistant than wild-type E coli” value [1] is listed as “more than 500 fold”.

Work on `O=C(Cn1cnnn1)NC1C(=O)N2C(C(=O)O)=C(COc3cc(Cl)ccc3Oc3ccc(Cl)cc3Cl)CS[C@H]12` (stereo partly shown) [Compound 29, 3-(2-(2,4-Dichlorophenoxy)-5-chlorophenoxy)methyl-7-(1-tetrazoleacetamido)-3-cephem-4-carboxylic acid] yielded a melting point of 112 °C, an MIC [2] of 1 µg/mL (≈ 1.63 µM) and an MIC [3] of 32 µg/mL (≈ 52.3 µM). The MIC ([4]; ATCC11632, S. aureus ATCC 11632) was 0.063 µg/mL (≈ 0.103 µM), the MIC ([4]; ATCC33594, S. aureus ATCC 33594) was 0.063 µg/mL (≈ 0.103 µM) and the MIC ([4]; ATCC700260, S. aureus ATCC 700260) was 0.063 µg/mL (≈ 0.103 µM). It also gave an MIC ([4]; ATCC700699, S. aureus ATCC 700699) of 0.125 µg/mL (≈ 0.204 µM), an MIC [5] of 2 µg/mL (≈ 3.27 µM) and an MIC [6] of 0.063 µg/mL (≈ 0.103 µM). The MIC ([7]; ATCC21726, P. aeruginosa ATCC 21726) was greater than 32 µg/mL, the MIC ([7]; ATCC29872, P. aeruginosa ATCC 29872) was greater than 32 µg/mL and the MIC ([8]; ATCC51503, K. pneumoniae ATCC 51503) was 8 µg/mL (≈ 13.1 µM). For the same molecule, the MIC ([8]; ATCC700721, K. pneumoniae ATCC 700721) was 1 µg/mL (≈ 1.63 µM), the MIC ([9]; ATCC49757, E. faecalis ATCC 49757) was 8 µg/mL (≈ 13.1 µM) and the MIC ([9]; ATCC700802, E. faecalis ATCC 700802) was 16 µg/mL (≈ 26.2 µM).
